Laboratory results: patent publication US9296697B2, “Hetaryl-substituted guanidine compounds and use thereof as binding partners for 5-HT5-receptors” (Abbott Laboratories, priority 2005, dated 2016)
Where a name gives a salt, the structure may show the parent alone.

Target: T1, h5-HT5A receptor (Homo sapiens, UniProt P47898)
T1 construct: expressed in transfected cells; membranes used
Assay: h5-HT5A [3H]5-CT binding assay
Details: affinity for 5-HT5A; membranes of HEK293 cells expressing the h5-HT5A receptor gene, 2.5 nM [3H]5-CT
Procedure: h5-HT5A [^3H]5-CT Binding Assay
Membranes of HEK293 cells which permanently express the h5-HT5A receptor gene were incubated in 100 mM tris-HCl buffer (pH 7.7) containing 1 mM EDTA, in the presence of 2.5 nM [^3H]5-CT (total volume 600 μL). The total binding is defined as the binding that is observed when the membranes are incubated in the presence of only the radioligand. The inhibition induced by the compound is determined by incubation of cell membranes in the presence of the radioligand and various concentrations of the compound of interest. Nonspecific binding is defined as the [^3H]5-CT binding obtained by incubation of the membranes, the same as for the total binding, but in the presence of 10 μM methiothepine. Following incubation for 75 min at 30° C., the membrane suspension was filtered through a GF/B-Filter coated with 0.03% PEI, using a Skatron® harvesting system. The residual radioactivity in the filter was quantified by liquid scintillation counting.
Various concentrations of the test substances were used in both assays, and the Ki or IC50 values were determined.

T1 sequence (P47898 whole entry): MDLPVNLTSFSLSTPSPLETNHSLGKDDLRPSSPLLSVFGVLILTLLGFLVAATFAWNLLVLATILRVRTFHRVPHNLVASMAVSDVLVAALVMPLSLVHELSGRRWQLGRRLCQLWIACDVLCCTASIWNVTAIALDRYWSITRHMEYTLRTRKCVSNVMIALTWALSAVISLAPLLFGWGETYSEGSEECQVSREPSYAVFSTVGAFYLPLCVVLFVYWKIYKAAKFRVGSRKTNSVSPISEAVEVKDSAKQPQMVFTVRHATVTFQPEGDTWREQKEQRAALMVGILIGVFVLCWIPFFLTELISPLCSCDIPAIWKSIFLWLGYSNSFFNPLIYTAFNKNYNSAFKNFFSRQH

Ki [µM]	SMILES
< 0.1	COc1ccccc1CNC(=N)Nc1cccc(C#N)n1 [Example 52, N-(6-Cyanopyridin-2-yl)-N′-(2-methoxybenzyl)guanidine acetate]
< 0.1	Cc1ccc(NC(=N)NCc2ccccc2Oc2ccccc2)nc1 [Example 28, N-(5-Methylpyridin-2-yl)-N′-(2-phenoxybenzyl)guanidine hydrochloride]
< 0.3	COc1cccc(OC)c1CNC(=N)Nc1ncccc1-c1ccc(F)cc1 [Example 61, N-(2,6-Dimethoxybenzyl)-N′-(3-(4-fluorophenyl)pyridin-2-yl)guanidine acetate]
< 0.1	COc1ccccc1CNC(=N)Nc1cc(C#N)ccn1 [Example 66, N-(4-Cyanopyridin-2-yl)-N′-(2-methoxybenzyl)guanidine acetate]
< 0.1	COc1cccc(OC)c1CNC(=N)Nc1ncccc1C [Example 13, N-(2,6-Dimethoxybenzyl)-N′-(3-methylpyridin-2-yl)guanidine acetate]
< 10	COc1cccc(OC)c1CNC(=N)Nc1ncc(C(F)(F)F)cc1Cl [Example 11, N-[3-Chloro-5-(trifluoromethyl)pyridin-2-yl]-N′-(2,6-dimethoxybenzyl)guanidine acetate]
< 0.1	Cc1ccc(NC(=N)NCc2ccccc2OC(F)F)nc1 [Example 26, N-[2-(Difluoromethoxy)benzyl]-N′-(5-methylpyridin-2-yl)guanidine]
< 0.3	COc1ccccc1CNC(=N)Nc1cc(-c2ccc(F)cc2)ccn1 [Example 59, N-[4-(4-Fluorophenyl)pyridin-2-yl]-N′-(2-methoxybenzyl)guanidine acetate]
< 0.1	Cc1ccc(NC(=N)NCc2ccccc2OC(C)C)nc1 [Example 23, N-(2-Isopropoxybenzyl)-N′-(5-methylpyridin-2-yl)guanidine acetate]
< 0.1	Cc1ccc(NC(=N)NCc2c(Cl)cccc2Oc2ccccc2)nc1 [Example 27, N-(2-Chloro-6-phenoxybenzyl)-N′-(5-methylpyridin-2-yl)guanidine acetate]
